According to patent US6623741B1, “Methods and compositions for inhibition of membrane fusion-associated events including RSV transmission” (Trimeris, Inc., priority 2000, dated 2003):
“Also recorded” adds a separate entry of the source. Like-named read-outs stand apart in the source and are kept apart here.

What was measured:
HIV-1LAI = conditions: for IC50 (RT production): CEM cells, 7 days
Experimental: Cell Free Virus Infection Assay:
(§1) Synthetic peptides were incubated at 37° C. with either 247 TCID50 (for experiment depicted in FIG. 2), or 62 TCID50 (for experiment depicted in FIG. 3) units of HIV-1LAI virus or 25 TCID50 units of HIV-2^NIHZ and CEM CD4^+ cells at peptide concentrations of 0, 0.04, 0.4, 4.0, and 40 μg/ml for 7 days. The resulting reverse transcriptase (RT) activity in counts per minute was determined using the assay described, below, in Section 6.1.5. See, Reed, L. J. et al., 1938, Am. J. Hyg. 27: 493-497 for an explanation of TCID50 calculations.
Reverse Transcriptase Assay:
(§2) The micro-reverse transcriptase (RT) assay was adapted from Goff et al. (Goff, S. et al., 1981, J. Virol. 38:239-248) and Willey et al. (Willey, R. et al., 1988, J. Virol. 62:139-147). Supernatants from virus/cell cultures are adjusted to 1% Triton-X100. A 10 μl sample of supernatant was added to 50 μl of RT cocktail in a 96-well U-bottom microtitre plate and the samples incubated at 37° C. for 90 min. The RT cocktail contained 75 mM KCl, 2 mM dithiothreitol, 5 mM MgCl2, 5 μg/ml poly A (Pharmacia, cat. No. 27-4110-01), 0.25 units/ml oligo dT (Pharmacia, cat. No. 27-7858-01), 0.05% NP40, 50 mM Tris-HCl, pH 7.8, 0.5 μM non-radioactive dTTP, and 10 μCi/ml ^32P-dTTP (Amersham, cat. No. PB. 10167).
After the incubation period, 40 μl of reaction mixture was applied to a Schleicher and Schuell (S+S) NA45 membrane (or DE81 paper) saturated in 2×SSC buffer (0.3 M NaCl and […] sodium citrate) held in a S+S Minifold over one sheet of GB003 (S+S) filter paper, with partial vacuum applied. Each well of the minifold was washed four times with 200 μl 2×SSC, under full vacuum. The membrane was removed from the minifold and washed 2 more times in a pyrex dish with an excess of 2×SSC. Finally, the membrane was drained on absorbent paper, placed on Whatman #3 paper, covered with Saran wrap, and exposed to film overnight at −70° C.
DP178 (SEQ ID NO:15) was next tested for its ability to block CD-4^+ CEM cell infection by cell-free HIV-1 virus. […]

[1] = Cell proliferation and toxicity assay; assay type: cell-based; conditions: human, CEM cells
Experimental: (§3) Cell proliferation and toxicity assay: Approximately 3.8×10^5 CEM cells for each peptide concentration were incubated for 3 days at 37° C. in T25 flasks. Peptides tested were DP178 (SEQ ID NO:15) and DP-116 (SEQ ID NO:1552), as described in FIG. 1. Peptides were synthesized as described, above, in Section 6.1. The concentrations of each peptide used were 0, 2.5, 10, and 40 μg/ml. Cell counts were taken at incubation times of 0, 24, 48, and 72 hours.
(§4) CEM cells were incubated in the presence of varying concentrations of DP178 (SEQ ID NO:15), and DP-116 (SEQ ID NO:1552), a peptide previously shown to be ineffective as an HIV inhibitor (Wild, C. et al., 1992, Proc. Natl. Acad. Sci. USA 89:10,537-10,541). Additionally, cells were incubated in the absence of either peptide.

HIV-1IIIB [2] = assay type: cell-based; conditions: for IC90: HIV-1 induced membrane fusion, read-out: Cell Fusion (IC90)
Experimental: Cell Fusion Assays For Anti-HIV Activity:
Cell fusion assays were performed as previously described (Matthews et al., 1987, Proc. Natl. Acad. Sci. USA 84: […]). CEM cells (7×10^4) were incubated with HIV-1IIIB chronically infected CEM cells (10^4) in 96-well flat-bottomed half-area plates (Costar) in 100 μl culture medium. Peptide and fusion proteins at various concentrations in 10 μl culture medium were incubated with the cell mixtures at 37° C. for 24 hours. Multinucleated syncytia were estimated with microscopic examination.

HIV-1IIIB [3] = test system: HIV-1IIIB
[4] = target: T1, DP107-like domain of the RSV F1-protein (MF5.1 fusion protein) (Human respiratory syncytial virus A, UniProt P03420); experiment: biochemical; assay type: binding
T1 construct: made in house
T1 sequence (P03420 142-302): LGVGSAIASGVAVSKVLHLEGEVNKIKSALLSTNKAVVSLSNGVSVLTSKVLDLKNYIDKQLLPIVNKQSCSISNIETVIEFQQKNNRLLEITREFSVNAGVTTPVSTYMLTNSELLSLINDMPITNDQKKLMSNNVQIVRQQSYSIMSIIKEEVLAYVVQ
Experimental: (§5) After incubation and washing, unbound Fab-d is removed from the plates and bound Fab-d is quantitated. A no-inhibitor control should also be conducted.
(§6) Such an assay takes advantage of accepted radioligand and receptor binding principles. (See, for example, Yamamura, H. I. et al., 1985, “Neurotransmitter Receptor Binding”, 2nd ed., Raven Press, NY.) As above, M41Δ78 is immobilized onto a solid support such as a microtiter well. […] Specific binding to M41Δ78 is defined as the difference of the binding of the labeled DP178 preparation in the microtiter wells (totals) and the binding in identical wells containing, in addition, excess unlabeled DP178 (nonspecifics).
Specifically, the DNA sequence corresponding amino acid residues 142-302 of the RSV F1 protein was amplified by PCR and cloned into the Xmn I site of the expression vector pMal-p2 (New England Biolab) to give MF5.1. These amino acid residues correspond to the extracellular domain of the RSV F1 protein including its DP107 region but excluding the DP178 region.
Cell fusion assays were performed with each of the peptides as described in Section 17 above.

[5] = test system: HIV-1 (HIV-1LAI, HIV-1MN, HIV-1RF, HIV-1SF2); assay type: cell-based
Experimental: Approximately 7×10^4 Molt cells were incubated with 1×10^4 CEM cells chronically infected with the HIV-1LAI virus in 96-well plates (one-half area cluster plates; Costar, Cambridge, Mass.) in a final volume of 100 μl culture medium as previously described (Matthews, T. J. et al., 1987, Proc. Natl. Acad. Sci. USA 84: 5424-5428). Peptide inhibitors were added in a volume of 10 μl and the cell mixtures were incubated for 24 hr. at 37° C. At that time, multinucleated giant cells were estimated by microscopic examination at a 40× magnification which allowed visualization of the entire well in a single field.
The initial screen for antiviral activity assayed peptides' ability to block syncytium formation induced by overnight co-cultivation of uninfected Molt 4 cells with chronically HIV-1 infected CEM cells. […] In the first of these experiments, serial DP178 (SEQ ID NO:15) peptide concentrations between 10 μg/ml and 12.5 ng/ml were tested for blockade of the cell fusion process. For these experiments, CEM cells chronically infected with either HIV-1LAI, HIV-1MN, HIV-1RF, or HIV-1SF2 virus were cocultivated overnight with uninfected Molt 4 cells.
The next series of experiments involved the preparation and testing of a DP178 (SEQ ID NO:15) homolog for its ability to inhibit HIV-1-induced syncytia formation.
(§7) The next series of experiments involved a comparison of DP178 (SEQ ID NO:15) HIV-1 and HIV-2 inhibitory activity.

HIV-2 = experiment: Cell fusion assay: HIV-2 mediated syncytia formation; assay type: cell-based
Text: as §7

HIV-2NIHZ = experiment: Cell free virus infection assay (RT production, CEM cells); assay type: cell-based
Experimental: as §1
as §2, with “10167). […]” for “10167).”

[6] = test system: Fab-d (human recombinant Fab); experiment: ELISA analysis of Fab-d binding / DP178 binding to the leucine zipper motif of gp41; conditions: reagent alone
Experimental: ELISA Analysis of DP178 Binding to the Leucine Zipper Motif of gp41:
Each well was washed three times with distilled water then blocked with 3% bovine serum albumin (BSA) for 2 hours. After blocking, peptides with 0.5% BSA in TBST (40 mM Tris-HCl pH7.5, 150 mM NaCl, 0.05% Tween 20) were added to the ELISA plates and incubated at room temperature for 1 hour. After washing three times with TBST, Fab-d was added at a concentration of 10 ng/ml with 0.5% BSA in TBST. The plates were washed three times with TBST after incubation at room temperature for 1 hour. Horseradish peroxidase (HRP) conjugated goat antihuman Fab antiserum at a 2000 fold dilution in TBST with 0.5% BSA was added to each well and incubated at room temperature for 45 minutes. The plates were then washed four times with TBST. The peroxidase substrate o-phenylene diamine (2.5 mg/ml) and 0.15% H2O2 were added to develop the color. The reaction was stopped with an equal volume of 4.5 N H2SO4 after incubation at room temperature for 10 minutes. The optical density of the stopped reaction mixture was measured with a micro plate reader (Molecular Design) at 490 nm.

CEM cells = experiment: Cell proliferation and toxicity assay; assay type: cell-based
Experimental: as §3, §4

[7] = target: T2, M41Δ178 fusion protein (DP107 domain of HIV gp41) (Human immunodeficiency virus type 1 group M subtype B, UniProt P03377); experiment: biochemical; assay type: binding, HIV-1
T2 construct: made by cloning the DNA fragment corresponding to gp41 amino acids 540-642 into the Xmn I site of pMal-p2; made in house
T2 sequence (P03377 540-642, stated change not applied): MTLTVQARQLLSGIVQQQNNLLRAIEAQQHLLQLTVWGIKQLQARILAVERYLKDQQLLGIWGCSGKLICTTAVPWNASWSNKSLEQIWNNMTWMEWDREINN
Experimental: as §5, §6

## Ac-LQARILAVERYLKDQQQ-NH2 [DP-116, reference compound]
HIV-1LAI; FIG. 1 legend
  inhibition of HIV-1 cell free virus infection (in words): negative for inhibition of HIV-1 infection
[1]; 2.5 μg/ml, 0 hours
  viability at 0 h, 2.5 µg/mL: 98%
[1]; 2.5 μg/ml, 24 hours
  viability at 24 h, 2.5 µg/mL: 96%
[1]; 2.5 μg/ml, 48 hours
  viability at 48 h, 2.5 µg/mL: 98%
[1]; 2.5 μg/ml, 72 hours
  viability at 72 h, 2.5 µg/mL: 99%
[1]; 10 μg/ml, 0 hours
  viability at 0 h, 10 µg/mL: 98%
[1]; 10 μg/ml, 24 hours
  viability at 24 h, 10 µg/mL: 95%
[1]; 10 μg/ml, 48 hours
  viability at 48 h, 10 µg/mL: 93%
[1]; 10 μg/ml, 72 hours
  viability at 72 h, 10 µg/mL: 98%
[1]; 40 μg/ml, 0 hours
  viability at 0 h, 40 µg/mL: 98%
[1]; 40 μg/ml, 24 hours
  viability at 24 h, 40 µg/mL: 95%
[1]; 40 μg/ml, 48 hours
  viability at 48 h, 40 µg/mL: 98%
[1]; 40 μg/ml, 72 hours
  viability at 72 h, 40 µg/mL: 97%

## Ac-NNLLRAIEAQQHLLQLTVWGIKQLQARILAVERYLKDQ-NH2 [DP107]
HIV-1IIIB [2]
  IC90: 1000 nM
HIV-1IIIB [3]; read-out: HIV-infectivity (IC90), HIV-1IIIB
  IC90: 1000 nM

## Ac-VYPSDEFDASISQVNEKINQALAYIRKADELLHNV-NH2 [Peptide T1091]
[4]
  binding affinity relative to T112: approximately ten-fold less

## Enfuvirtide
[5]; HIV-1LAI infected CEM + Molt 4 cells
  concentration affording complete protection against syncytium formation (lowest concentration tested): ≤ 12.5 ng/mL
[5]; HIV-1MN, HIV-1RF, HIV-1SF2 infected CEM + Molt 4 cells
  concentration affording complete protection against syncytium formation (lowest concentration tested): ≤ 100 ng/mL
[5]; HIV-1 mediated CD-4+ cell-cell fusion
  concentration completely blocking virus-induced syncytia formation (lowest effective inhibitory concentration): 1 to 10 ng/mL
[5]; HIV-1 vs HIV-2 comparison, FIG. 5
  concentration blocking HIV-1-mediated syncytia formation: below 1 ng/ml
HIV-2
  selectivity as inhibitor of HIV-1-mediated over HIV-2 mediated cell fusion: 4 log
HIV-2; FIG. 5
  concentration failing to block HIV-2 mediated syncytia formation: > 10 µg/mL
HIV-1LAI; 62 TCID50 HIV-1LAI
  IC50 (RT production): about 31 ng/ml
HIV-1LAI; 247 TCID50 HIV-1LAI
  IC50 (RT production): 0.09 µg/mL
HIV-2NIHZ; 25 TCID50 HIV-2NIHZ, CEM cells, 7 days
  IC50 for HIV-2NIHZ (in words): much higher IC50
HIV-2NIHZ; cell-free infection
  potency as HIV-1 inhibitor versus HIV-2 inhibitor: two logs more potent
HIV-1IIIB [2]; 10 nM
  syncytia in the presence of the peptide: no observable syncytia
HIV-1IIIB [2]
  IC90: 1 nM
[6]
  Fab-d binding (in words): failed to bind
HIV-1IIIB [3]; 1IIIB
  IC90: 80 nM

## enfuvirtide
CEM cells; 2.5 μg/ml, 0 hours
  % Viability: 98%
CEM cells; 2.5 μg/ml, 24 hours
  % Viability: 93%
CEM cells; 2.5 μg/ml, 48 hours
  % Viability: 96%
CEM cells; 2.5 μg/ml, 72 hours
  % Viability: 96%
CEM cells; 10 μg/ml, 0 hours
  % Viability: 98%
CEM cells; 10 μg/ml, 24 hours
  % Viability: 97%
CEM cells; 10 μg/ml, 48 hours
  % Viability: 98%
CEM cells; 10 μg/ml, 72 hours
  % Viability: 98%
CEM cells; 40 μg/ml, 0 hours
  % Viability: 98%
CEM cells; 40 μg/ml, 24 hours
  % Viability: 97%
CEM cells; 40 μg/ml, 48 hours
  % Viability: 95%
CEM cells; 40 μg/ml, 72 hours
  % Viability: 97%
CEM cells; CEM cells, up to 40 μg/ml, 3 days
  cytotoxic effects on cells in culture: non-cytotoxic; also recorded: no cytotoxic effects
[7]
  Kd: 10 nM
